Experimental data published in patent US20220133842A1 (priority 2019, published 2022).
≈ marks a conversion by molar mass, not a printed value. Read-outs that look alike come from different tables or passages of the source.

Experiments:
[1] = test system: Lactobacillus acidophilus (DSM 20079); test: microbe, parasite or virus in culture; format: cell-based
[2] = test system: Clostridium difficile (DSM 1296); test: microbe, parasite or virus in culture; format: cell-based
IPEC-J2 cells [3] = test: cells; format: cell-based, pig; settings: read-out: IC50 (concentration causing 50% cell death)
[4] = test system: Clostridium botulinum (DSM 1985); test: microbe, parasite or virus in culture; format: cell-based
[5] = test system: Clostridium perfringens (ATCC 13124)
[6] = test system: Enterococcus faecalis (DSM 13591); test: microbe, parasite or virus in culture; format: cell-based
[7] = test system: Clostridium nexile (DSM 1787); test: microbe, parasite or virus in culture; format: cell-based
T84 cells (ATCC CCL-248) = test: cells; format: cell-based, human; settings: read-out: IC50 (concentration causing 50% cell death)
[8] = test system: Streptococcus thermophilus (ATCC LMD-9); test: microbe, parasite or virus in culture; format: cell-based
[9] = test system: Clostridium perfringens (ATCC13124); format: cell-based
IPEC-J2 cells [10] = settings: pig
[11] = test system: Bacteroides thetaioataomicron (DSM 2255); test: microbe, parasite or virus in culture; format: cell-based
T84 cells = settings: human
[12] = test system: Caco-2 cells (ATCC HTB-37); test: cells; format: cell-based, human; settings: read-out: IC50 (concentration causing 50% cell death)
[13] = test system: human (Caco-2 and T84) and pig (IPEC-J2) intestinal cells
[14] = test system: Streptococcus pyogenes (DSM 20565); test: microbe, parasite or virus in culture; format: cell-based
[15] = test system: Clostridium propionicum (DSM 6251); test: microbe, parasite or virus in culture; format: cell-based
[16] = test system: Clostridium coccoides (DSM 935); test: microbe, parasite or virus in culture; format: cell-based
Caco-2 cells = settings: human
[17] = test system: Helicobacter pylori (ATCC 43504); test: microbe, parasite or virus in culture; format: cell-based
[18] = test system: human or porcine intestinal cells grown on inserts; settings: human, pig
[19] = test system: Propionibacterium acnes (ATCC 6919); test: microbe, parasite or virus in culture; format: cell-based
[20] = test system: Fusarium oxysporum (DSM 62316); format: cell-based
[21] = test system: Citrobacter rodentium (ATCC 51116); format: cell-based
[22] = test system: Bacillus subtilis (DSM 347); format: cell-based
[23] = test system: Pseudomonas aeruginosa (CIP 107398); format: cell-based
[24] = test system: Citrobacter farmeri (ATCC 51633); format: cell-based
[25] = test system: Klebsiella variicola (DSM 15968); format: cell-based
[26] = test system: Arthrobacter gandavensis (DSM 2447); format: cell-based
[27] = test system: Fusarium graminearum (DSM 1095); format: cell-based
[28] = test system: Aspergillus ochraceus (DSM 824); format: cell-based
[29] = test system: Aspergillus flavus (DSM 1959); format: cell-based
[30] = test system: Acinetobacter baumannii (CIP 110431); format: cell-based
[31] = test system: Aspergillus niger (ATCC 9142); format: cell-based
[32] = test system: Mycobacterium smegmatis (ATCC 700084); format: cell-based
[33] = test system: Listeria monocytogenes (DSM 20600); format: cell-based
[34] = test system: Shigella flexneri (ATCC 12022); format: cell-based
[35] = test system: Salmonella enterica (CIP 80.39); format: cell-based
[36] = test system: Candida albicans (DSM 10697); format: cell-based
[37] = test system: Lactococcus lactis (DSM 20481); format: cell-based
[38] = test system: Staphylococcus aureus (ATCC 6538P); format: cell-based
Bacillus cereus (DSM 31) = format: cell-based
[39] = test system: Micrococcus luteus (DSM 20030); format: cell-based
[40] = test system: Escherichia coli (ATCC 8739); format: cell-based
[41] = test system: Penicillium verrucosum (DSM 12639); format: cell-based
[42] = test system: Staphylococcus aureus MRSA USA300 (ATCC BAA-1717); format: cell-based
[43] = test system: Klebsiella pneumoniae (DSMZ 26371); format: cell-based
[44] = test system: Fusarium verticillioides (DSM 62264); format: cell-based
[45] = test system: Clostridium perfringens (ATCC 13124); format: cell-based
[46] = test system: Clostridium perfringens (ATCC 13124); format: cell-based; remark: listed apart in the source
[47] = test system: Clostridium perfringens strain (ATCC 13124) and clinical strains of Clostridium perfringens; format: cell-based

Cc1ncc([N+](=O)[O-])n1CCO [Metronidazole]
MIC ([1]; Lactobacillus acidophilus, DSM20079): > 1500 µM | MIC ([2]; Clostridioides difficile, DSM1296): 1.17 µM (≈ 0.2 µg/mL) | IC50 (IPEC-J2 cells [3]; Sus scrofa, IPEC-J2, 48 h): > 1500 µM | MIC ([4]; Clostridium botulinum, DSM1985): 0.29 µM (≈ 0.0496 µg/mL) | MIC (mg/L) ([5]; Clostridium perfringens, ATCC13124): 1.60 mg/L (≈ 9.35 µM) | MIC ([6]; Enterococcus faecalis, DSM13591): > 1500 µM | MIC ([7]; Faecalimonas nexilis, DSM1787): 2.34 µM (≈ 0.401 µg/mL) | IC50 (T84 cells (ATCC CCL-248); Homo sapiens, T84, 48 h): > 1500 µM | MIC ([8]; Streptococcus thermophilus): 1500 µM (≈ 257 µg/mL) | increase in MIC ([9]; after 7 days of contact): 10 fold | increase in MIC ([9]; after 9 days of contact): 50-100 fold | transepithelial electrical resistance (IPEC-J2 cells [10]): 875 +/− 203 ohm.cm2 | MIC ([11]; Bacteroides, DSM2255): 2.34 µM (≈ 0.401 µg/mL) | transepithelial electrical resistance (T84 cells): 293 +/− 12.3 ohm.cm2 | IC50 ([12]; Homo sapiens, Caco-2, 48 h): > 1500 µM | toxicity to intestinal cells [13]: not toxic | MIC ([14]; Streptococcus pyogenes, DSM20565): > 1500 µM | MIC ([15]; Anaerotignum propionicum, DSM6251): 1.17 µM (≈ 0.2 µg/mL) | MIC ([16]; Blautia producta, DSM935): 0.29 µM (≈ 0.0496 µg/mL) | transepithelial electrical resistance (Caco-2 cells): 252 +/− 13.7 ohm.cm2 | MIC ([17]; Helicobacter pylori, ATCC 21031 / ATCC 43504): > 1500 µM | decrease in transepithelial electrical resistance [18]: 0-34% | MIC ([19]; Cutibacterium acnes, ATCC6919): 1500 µM (≈ 257 µg/mL)

CCCCCCCCCC(=O)N[C@@H](Cc1c[nH]c2ccccc12)C(=O)N[C@H](CC(N)=O)C(=O)N[C@@H](CC(=O)O)C(=O)N[C@@H]1C(=O)NCC(=O)N[C@@H](CCCN)C(=O)N[C@@H](CC(=O)O)C(=O)N[C@H](C)C(=O)N[C@@H](CC(=O)O)C(=O)NCC(=O)N[C@H](CO)C(=O)N[C@@H]([C@H](C)CC(=O)O)C(=O)N[C@@H](CC(=O)c2ccccc2N)C(=O)O[C@@H]1C [Daptomycin]
MIC ([5]; ATCC 13124): 8 µM (≈ 13 µg/mL) | MIC (mg/L) ([5]; ATCC 13124): 12.96 mg/L (≈ 8 µM)

Bafilomycin B1
MIC [20]: 50 µM | MIC [1]: 10 µM | MIC [21]: >100 µM | MIC [22]: 20 µM | MIC [2]: >100 µM | MIC [23]: >100 µM | MIC [4]: 30 µM | MIC [24]: >100 µM | MIC [5]: 10 µM | MIC (mg/L) [5]: 8.15 mg/L | MIC [6]: 40 µM | MIC [25]: >100 µM | MIC [26]: 3 µM | MIC [27]: 25 µM | MIC [7]: 60 µM | MIC [28]: 6.25 µM | MIC [29]: 3.25 µM | MIC [8]: 30 µM | MIC [30]: >100 µM | MIC [31]: 100 µM | MIC [32]: >100 µM | MIC [11]: >100 µM | MIC [33]: 50 µM | MIC [34]: >100 µM | MIC [14]: 20 µM | MIC [35]: >100 µM | MIC [36]: 100 µM | MIC [37]: 50 µM | MIC [15]: 25 µM | MIC [38]: 10 µM | MIC [16]: 30 µM | MIC (Bacillus cereus (DSM 31)): 25 µM | MIC [17]: >100 µM | MIC [39]: 25 µM | MIC [40]: >100 µM | MIC [41]: 6.25 µM | MIC [42]: 20 µM | MIC [43]: >100 µM | MIC [19]: 60 µM | MIC [44]: 50 µM

Destruxin A
MIC [20]: >100 µM | MIC [1]: >100 µM | MIC [21]: >100 µM | MIC [22]: >100 µM | MIC [2]: >100 µM | permeabilisation of the bacterial membrane [45]: no permeabilisation | IC50 (IPEC-J2 cells [3]): > 100 µM | MIC [23]: >100 µM | MIC [4]: >100 µM | MIC [24]: >100 µM | morphological phenotype (mechanism of action) [46]: hypercondensation of bacterial DNA | MIC (mg/L) [5]: 0.86 mg/L | MIC [6]: >100 µM | MIC [25]: >100 µM | MIC [26]: >100 µM | MIC [27]: >100 µM | MIC [7]: >100 µM | MIC [28]: >100 µM | IC50 (T84 cells (ATCC CCL-248)): > 100 µM | MIC [29]: >100 µM | MIC [8]: >100 µM | change of MIC during exposure [9]: do not change or change only slightly | MIC [30]: >100 µM | MIC [31]: >100 µM | MIC [32]: >100 µM | MIC [11]: >100 µM | MIC [33]: >100 µM | IC50 [12]: > 100 µM | MIC [34]: >100 µM | toxicity to intestinal cells [13]: not toxic | MIC [14]: >100 µM | MIC [35]: >100 µM | MIC [36]: >100 µM | MIC [37]: >100 µM | MIC [15]: >100 µM | MIC [38]: >100 µM | MIC [16]: >100 µM | MIC (Bacillus cereus (DSM 31)): >100 µM | MIC [17]: >100 µM | MIC [39]: >100 µM | MIC [40]: >100 µM | MIC [41]: >100 µM | MIC [42]: >100 µM | MIC [43]: >100 µM | MIC [19]: >100 µM | minimum bactericidal concentrations (BMC values) [47]: identical to the MIC values | MIC [44]: >100 µM

Enniatin A1
MIC [22]: 25 µM | IC50 (IPEC-J2 cells [3]): 5.1 µM | MIC [23]: >100 µM | MIC [5]: 6.25 µM | MIC (mg/L) [5]: 4.16 mg/L | MIC [6]: 6.25 µM | IC50 (T84 cells (ATCC CCL-248)): 4.5 µM | IC50 [12]: 3.1 µM | toxicity to intestinal cells [13]: toxic | MIC [36]: 3.125 µM | MIC [38]: 25 µM | MIC [40]: >100 µM

O=C(N[C@H](CO)[C@H](O)c1ccc([N+](=O)[O-])cc1)C(Cl)Cl [Chloramphenicol]
morphological phenotype (mechanism of action) ([46]; 5 times MIC, 2 hours, FM4-64FX and DAPI labelling): hypercondensation of bacterial DNA
